A short description of data set [1]: levetiracetam blood plasma levels in aged-impaired rats. Type of data set: in vivo. The following applies: rat. As for the experimental part: Rats: Blood is drawn from aged-impaired rats by cardiac puncture during perfusion after a 28-day levetiracetam treatment period and is sent for analysis of levetiracetam plasma levels by MedTox Laboratories in St. Paul, Minn.
The levetiracetam blood levels in the aged-impaired rats treated with daily levetiracetam doses of 10 mg/kg and 60 mg/kg can be use to estimate the levetiracetam blood level of its daily dose of 20 mg/kg. This extrapolation gives an estimated levetiracetam blood level of 7.6 mcg/ml for the 20 mg/kg daily dose.

For a further data set, the system named is aMCI subjects. Description: neuropsychological tests outside the scanner (Buschke, Benton, Verbal Paired Associates). The data set is classed as in vivo, human. Particulars: 125 mg twice a day for two weeks. The text has this: All participants undergo neuropsychological evaluation at the time of assessment for treatment efficacy (Visits 1 and 2), as well as at the Baseline Visit. The evaluation occurs outside of the scanner and includes the Buschke Selective Reminding Test (Buschke and Fuld, 1974) and the Verbal Paired Associates subtest, the Logical Memory subtest, the Visual Reproduction subtest of the Wechsler Memory Scale-Revised (WMS-R) (Wechsler, 1997), and the Benton Visual Retention Test, as these tasks are particularly sensitive to medial temporal lobe function and early memory problems (Marquis et al., 2002 and Masur et al., 1994). Additionally, subjects are asked to complete tests of more general cognitive function such as tests to assess general mental status, executive function, attention and general naming ability. All neuropsychological tests are administered by a trained research assistant during a 60-minute session. As the three neuropsychological assessments in this study occur within a time period of 8 weeks, different versions of the neuropsychological tests are used to minimize test specific practice effects. Breaks are provided to the subject as needed.

Data set [2] has as its system reelin in Entorhinal Cortex (EC2). Description: reelin mRNA in situ hybridization in entorhinal cortex after 4-week levetiracetam. Type of data set: in vivo, rat. The following applies: 10 mg/kg/day, osmotic minipumps, 28 days; vs AI-VEH t(13)=2.386, p=0.033. As for the experimental part:
Under isoflurane anesthesia, memory-impaired aged rats are implanted subcutaneously in the intrascapular region with osmotic mini-pumps (ALZET,
Durect Corporation, Cupertino, Calif.) with levetiracetam (10 mg/kg/day) or saline vehicle for four weeks prior to perfusion. Young rats, which served as controls, receive either saline vehicle in mini-pumps or no implantation.
At the end of the 4-week treatment period, rats are anesthetized with isoflurane and perfused transcardiacally with 0.1 M phosphate buffer saline, followed by 4% paraformaldehyde in phosphate buffer. Brains are removed and post-fixed in paraformaldehyde overnight. The brains are then moved into 4% paraformaldehyde in phosphate buffer containing 16% sucrose. […]
Probe templates are synthesized as described in Haberman et al. (2008). […] The final probe is resuspended in RNase-free water and the specific activity is determined by scintillation counter.
In situ hybridization is carried out as described by Haberman et al., (2008). […] Slides are dried overnight, exposed to a phosphoimager screen, and quantified by using ImageQuant (GE Healthcare). Digital images are acquired of entorhinal cortical sections from the same levels for all animals and the subregion of interest is outlined and quantified. […]

Entries after “also recorded” stand apart in the source; their conditions may differ. Read-outs that look alike come from different tables or passages of the source.

As for `CC[C@@H](C(N)=O)N1CCCC1=O` [levetiracetam, (2S)-2-(2-oxopyrrolidin-1-yl) butanamide], the concentration at 28 days in data set [1] (20 mg/kg daily dose, extrapolated from 10 and 60 mg/kg, read-out: estimated levetiracetam blood level) was 7600 ng/mL. Also, the concentration at 28 days in data set [1] (other: osmotic minipumps, 10 mg/kg/day, 28 days, SEM±0.255, read-out: mean levetiracetam blood plasma level) is 3800 ng/mL. In addition, the concentration at 28 days in data set [1] (other: osmotic minipumps, 20 mg/kg daily dose, extrapolated from 10 and 60 mg/kg, read-out: estimated levetiracetam blood level) is 7600 ng/mL. Further, in the data set with aMCI subjects, the “performance in Benton Visual Retention Test” value is given as “fails to rescue performance”, the “performance in Buschke Selective Reminding Test—Delayed Recall” value is “fails to rescue performance”, the “performance in Verbal Paired Associates Test—Delayed Recall” value is on record as “fails to rescue performance” and the “performance in Verbal Paired Associates Test—Recognition” value was “fails to rescue performance”. Moreover, the “levels of reelin (mRNA expression) in Entorhinal Cortex (EC2)” value in data set [2] was “restores the levels of reelin; also recorded: significantly increases the expression of reelin; also recorded: restores reelin in Entorhinal Cortex (EC2)”.

The values are drawn from US10154988B2, “Methods and compositions for treating schizophrenia” (The Johns Hopkins University, priority 2012, dated 2018).
